# Data as given in PubChem BioAssay (NCI).
#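 Five concentrations, 48 hours, 96-well plates. GI50 marks 50% less growth. TGI: concentration producing complete growth inhibition.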
# Columns and labels:
# Assay in all cases: growth of human tumour cells (NCI), 48 h
# [1] = test system: 786-0 renal
# [2] = test system: A498 renal
# [3] = test system: A549 NSCLC
# [4] = test system: ACHN renal
# [5] = test system: BT-549 breast
# [6] = test system: CAKI-1 renal
# [7] = test system: CCRF-CEM leukemia
# [8] = test system: COLO 205 colon
# [9] = test system: DU-145 prostate
# [10] = test system: EKVX NSCLC
# [11] = test system: HCC-2998 colon
# [12] = test system: HCT-116 colon
# [13] = test system: HCT-15 colon
# [14] = test system: HL-60(TB) leukemia
# [15] = test system: HOP-62 NSCLC
# [16] = test system: HOP-92 NSCLC
# [17] = test system: HS 578T breast
# [18] = test system: HT29 colon
# [19] = test system: IGROV1 ovarian
# [20] = test system: K-562 leukemia
# [21] = test system: KM12 colon
# [22] = test system: LOX IMVI melanoma
# [23] = test system: M14 melanoma
# [24] = test system: MALME-3M melanoma
# [25] = test system: MCF7 breast
# [26] = test system: MDA-MB-231 breast
# [27] = test system: MDA-MB-435
# [28] = test system: MDA-MB-468 breast
# [29] = test system: MOLT-4 leukemia
# [30] = test system: NCI-H226 lung
# [31] = test system: NCI-H23 lung
# [32] = test system: NCI-H460 lung
# [33] = test system: NCI-H522 lung
# [34] = test system: NCI/ADR-RES ovarian
# [35] = test system: OVCAR-3 ovarian
# [36] = test system: OVCAR-4 ovarian
# [37] = test system: OVCAR-5 ovarian
# [38] = test system: OVCAR-8 ovarian
# [39] = test system: PC-3 prostate
# [40] = test system: RPMI-8226 leukemia
# [41] = test system: SF-268 CNS
# [42] = test system: SF-295 CNS
# [43] = test system: SF-539 CNS
# [44] = test system: SK-MEL-2 melanoma
# [45] = test system: SK-MEL-28 melanoma
# [46] = test system: SK-MEL-5 melanoma
# [47] = test system: SK-OV-3 ovarian
# [48] = test system: SN12C renal
# [49] = test system: SNB-19 CNS
# [50] = test system: SNB-75 CNS
# [51] = test system: SR leukemia
# [52] = test system: SW-620 colon
# [53] = test system: TK-10 renal
# [54] = test system: U251 CNS
# [55] = test system: UACC-257 melanoma
# [56] = test system: UACC-62 melanoma
# [57] = test system: UO-31 renal
smiles,measurement,setting,value
Cn1cc(-c2nc(N)nnc2-c2c[nH]c3ccccc23)c2cc(Br)cnc21,GI50,[1],0.0537 µM
same,TGI,[1],15.6 µM
same,GI50,[2],15.6 µM
same,TGI,[2],29.7 µM
same,GI50,[3],0.0625 µM
same,TGI,[3],19.3 µM
same,GI50,[4],0.0743 µM
same,TGI,[4],16.9 µM
same,GI50,[5],0.029 µM
same,TGI,[5],5.67 µM
same,GI50,[6],0.0535 µM
same,TGI,[6],17.1 µM
same,GI50,[7],0.0334 µM
same,TGI,[7],> 35.5 µM
same,GI50,[8],0.0414 µM
same,TGI,[8],0.28 µM
same,GI50,[9],0.0877 µM
same,TGI,[9],22.4 µM
same,GI50,[10],0.0949 µM
same,TGI,[10],20.7 µM
same,GI50,[11],0.0841 µM
same,TGI,[11],3.47 µM
same,GI50,[12],0.0441 µM
same,TGI,[12],6.51 µM
same,GI50,[13],0.0376 µM
same,TGI,[13],10.7 µM
same,GI50,[14],0.0265 µM
same,TGI,[14],0.1 µM
same,GI50,[15],0.0564 µM
same,TGI,[15],21.2 µM
same,GI50,[16],3.89 µM
same,TGI,[16],25.5 µM
same,GI50,[17],0.0319 µM
same,TGI,[17],33.7 µM
same,GI50,[18],0.0347 µM
same,TGI,[18],1.23 µM
same,GI50,[19],0.0721 µM
same,TGI,[19],15.2 µM
same,GI50,[20],0.0357 µM
same,TGI,[20],> 100 µM
same,GI50,[21],0.0506 µM
same,TGI,[21],13.9 µM
same,GI50,[22],0.0435 µM
same,TGI,[22],15.8 µM
same,GI50,[23],0.0526 µM
same,TGI,[23],2.06 µM
same,GI50,[24],0.0466 µM
same,TGI,[24],18.5 µM
same,GI50,[25],0.0275 µM
same,TGI,[25],10.6 µM
same,GI50,[26],0.0697 µM
same,TGI,[26],11.7 µM
same,GI50,[27],0.0167 µM
same,TGI,[27],0.0525 µM
same,GI50,[28],0.02 µM
same,TGI,[28],0.0518 µM
same,GI50,[29],0.0505 µM
same,TGI,[29],19.2 µM
same,GI50,[30],0.0509 µM
same,TGI,[30],2.7 µM
same,GI50,[31],0.0738 µM
same,TGI,[31],10.4 µM
same,GI50,[32],0.0462 µM
same,TGI,[32],1.35 µM
same,GI50,[33],0.0125 µM
same,TGI,[33],0.0797 µM
same,GI50,[34],0.0924 µM
same,TGI,[34],0.776 µM
same,GI50,[35],0.039 µM
same,TGI,[35],0.692 µM
same,GI50,[36],2.7 µM
same,TGI,[36],36.8 µM
same,GI50,[37],0.0729 µM
same,TGI,[37],15.5 µM
same,GI50,[38],0.0634 µM
same,TGI,[38],4.7 µM
same,GI50,[39],0.056 µM
same,TGI,[39],47.9 µM
same,GI50,[40],0.0708 µM
same,TGI,[40],> 45.5 µM
same,GI50,[41],0.34 µM
same,TGI,[41],25.5 µM
same,GI50,[42],0.0294 µM
same,TGI,[42],1.19 µM
same,GI50,[43],0.0323 µM
same,TGI,[43],0.175 µM
same,GI50,[44],0.0409 µM
same,TGI,[44],14.3 µM
same,GI50,[45],0.364 µM
same,TGI,[45],19.2 µM
same,GI50,[46],0.0301 µM
same,TGI,[46],1.19 µM
same,GI50,[47],0.0487 µM
same,TGI,[47],21.2 µM
same,GI50,[48],0.0589 µM
same,TGI,[48],14.3 µM
same,GI50,[49],0.0632 µM
same,TGI,[49],10.4 µM
same,GI50,[50],0.0302 µM
same,TGI,[50],18.3 µM
same,GI50,[51],0.0309 µM
same,TGI,[51],> 100 µM
same,GI50,[52],0.0376 µM
same,TGI,[52],13.2 µM
same,GI50,[53],5.95 µM
same,TGI,[53],34.2 µM
same,GI50,[54],0.0402 µM
same,TGI,[54],6.71 µM
same,GI50,[55],0.0421 µM
same,TGI,[55],21.8 µM
same,GI50,[56],0.0294 µM
same,TGI,[56],7.68 µM
same,GI50,[57],0.0711 µM
same,TGI,[57],15.2 µM
